{
  "source": "patent US20230405078A1",
  "about": "“DETECTION AND TREATMENT OF INTESTINAL FIBROSIS” (THE REGENTS OF THE UNIVERSITY OF CALIFORNIA, priority 2020, published 2023)",
  "key": {"[1]": {"test_system": "primary stricturing CD patient-derived colonic fibroblasts", "test": "Fibrogenesis in CDSE-treated primary stricturing CD patient-derived colonic fibroblasts", "format": "cell-based, human", "method": "Stricturing CD patient-derived primary colonic fibroblasts (CD-HIFs) were obtained from Cleveland Clinic via material transfer agreement (MTA2020-00000154) and under\n(§1) Cleveland Clinic IRB directives (IRB #17-1167). Primary non-IBD patient-derived colonic fibroblasts (H6231) were purchased from Cell Biologics. All primary colonic fibroblasts were cultured in fibroblast medium (M2267, Cell Biologics). Human colonic CCD-18Co fibroblasts (ATCC) were cultured in minimal essential medium Eagle's medium (MEM) containing 10% fetal bovine serum and 1% penicillin-streptomycin 6, 20. All fibroblasts were grown to 80% confluence and then switched to serum-free media overnight for experiments.\nFor activation of protease-activated receptors (PARs), fibroblasts were pretreated with 0.8% DMSO, 10 μM PAR1 agonist TRAP-6 (HY-P0078, MCE), 10 μM PAR2 agonist SLIGKV-NH2 (Protease-Activated Receptor-2, amide, HY-P0283, MCE), or 0.4 μg/ml PAR2-activating protease recombinant cathepsin S (1183-CY-010, R&D Systems) for 30 minutes. For miR205-5p activation, fibroblasts were transfected with (30 picomoles/well) either control (YM00479902) or miR205-5p miRCURY LNA mimic (YM00472340) from Qiagen via Lipofectamine 3000 transfection reagent (L3000001, ThermoFisher) in Opti-MEM (#31985062, ThermoFisher) overnight. […]"}, "[2]": {"test_system": "Human colonic CCD-18Co fibroblasts", "test": "TGF-β1-induced fibrogenesis in CCD-18Co fibroblasts", "format": "cell-based", "method": "as §1\nFor activation of protease-activated receptors (PARs), fibroblasts were pretreated with 0.8% DMSO, 10 μM PAR1 agonist TRAP-6 (HY-P0078, MCE), 10 μM PAR2 agonist SLIGKV-NH2 (Protease-Activated Receptor-2, amide, HY-P0283, MCE), or 0.4 μg/ml PAR2-activating protease recombinant cathepsin S (1183-CY-010, R&D Systems) for 30 minutes. For miR205-5p activation, fibroblasts were transfected with (30 picomoles/well) either control (YM00479902) or miR205-5p miRCURY LNA mimic (YM00472340) from Qiagen via Lipofectamine 3000 transfection reagent (L3000001, ThermoFisher) in Opti-MEM (#31985062, ThermoFisher) overnight. For miR205-5p inhibition, fibroblasts were pretreated with 50nM either control (Y100199006) or miR205-5p power inhibitors (Y104101508-DDA) from Qiagen overnight. For overexpression of zinc finger E-box homeobox 1 (ZEB1), fibroblasts were infected with […] infectious units/plate either control (PS100064V) or human ZEB1-overexpressing lentivirus (RC217704L1V) from Origene, Inc. overnight.\nThe fibroblasts were pretreated with either 0.1% TFA (vehicle), 10 ng/ml transforming growth factor-beta 1 (TGF-p1), or 100 μg/ml serum exosomes from stricturing CD (CDSE) patients for two hours to induce fibrogenesis, followed by incubation with elafin (AS-61641, Anaspec) for 2-24 hours. Serum exosomes from CD patients were used to mimic the chemical environment of CD [12]. At the end of the experiments, the cells were lysed with either RLT buffer for RNA experiments or radioimmunoprecipitation assay (RIPA) buffer for ProCOL1A1 (DY6220-05, R&D Systems), COL1A2 (MBS2701496, MyBioSource), ZEB1 (MBS774017, MyBioSource), or phosphorylated ERK1/2 (DYC1018B, R&D Systems) ELISAs."}, "TNBS-treated mice": {"test_system": "TNBS-treated mice", "test": "TNBS-associated colonic fibrosis in mice", "format": "in vivo", "method": "Eight-week-old male and female CD-1 mice (#022, Charles River Laboratories) were injected with 50pL TNBS solution (to induce colonic fibrosis) or 30% ethanol (vehicle) via enema weekly for five weeks. After the last TNBS injection, the mice were held for two additional weeks to develop colonic fibrosis. Some of the mice were injected with 5 μg/mouse of either control (PS100001) or elafin-expressing construct (RC203136) from\nOrigene via InvivoJetPEI transfection reagent (201-10G, Polyplus) intracolonically on the 9th day after the last TNBS injection or five days before the end of experiment.\nSome of the mice received either a single intraperitoneal injection of 10 mg/kg anti-tumor necrosis factor-alpha (anti-TNFα) neutralizing antibody (6E0058, BioXCell) or oral antibiotic mixture in drinking water ad libitum from the 9th day after the last TNBS injection to the endpoint of the experiment. The antibiotics mixture contains kanamycin (0.4 mg/mL), gentamicin (0.035 mg/mL), colistin (850 U/mL), metronidazole (0.215 mg/mL), and vancomycin (0.045 mg/mL), which was routinely used by our laboratory for suppressing intestinal microbiota.\nFor PAR1/2 activation, some of the mice were injected with DMSO (50pL/mouse), 5 mg/kg PAR1 agonist TRAP-6, or 5 mg/kg PAR2 agonist SLIGKV-NH2 via enema on the 9th, 11th, and 13th days after the last TNBS injection.\nFor miRNA inhibition, some of the mice were injected with 5 mg/kg either control inhibitor or miR205-5p power inhibitor (Qiagen) […] via enema on the 9th, 11th, and 13th days after the last TNBS injection.\nFor Zeb1 manipulation, some mice received a single intraperitoneal injection (10^7 infectious units/mouse) of control lentivirus (PS100064V), Zeb1-overexpressing lentivirus (MR223095L2V), or Zeb1-shRNA lentivirus (TL513177V) from Origene, Inc. nine days after the last TNBS injection.\nDr. Xingguo Cheng produced the oral elafin-Eudragit-FS3OD formulation via a material transfer agreement (UCLA MTA2019-00000337) with the Southwest Research Institute (SWRI) in Texas. […] The mice were fed with either control-Eudragit or elafin-Eudragit in mildly acidified (pH 5) water containing 0.5% hydroxypropyl methylcellulose (HPMC) daily via oral gavage during the last five days of the experiment.\nH&E and Masson Trichrome (MT) staining were performed as described previously. Microphotographs were recorded at multiple locations and scored by two investigators blindly. Intestinal injuries were scored (0-12). The severity of intestinal fibrosis was assessed by MT staining and scored (0-3). ZEB1 immunohistochemistry was performed using an anti-ZEB1 antibody (HPA027524, Sigma).\nTotal RNA was isolated by an RNeasy kit (#74104, Qiagen) and reverse transcribed into cDNA by a high-capacity cDNA reverse transcription kit (#4368813, ThermoFisher). PCR reactions were run with Taq Universal SYBR Green Supermix (1725120, Bio-Rad) and TaqMan real-time PCR assays (ThermoFisher) in a Bio-Rad CFX384 system. For the determination of miRNA expression, RNA was converted to cDNA using miRCURY LNA RT kit. PCR reactions were run with miRCURY LNA SYBR Green PCR kit and miRCURY LNA PCR assays (Qiagen). Relative mRNA/miRNA quantification was performed by comparing test groups and control groups after normalization with endogenous control genes. The fold changes are expressed as […]. […]\nOverall disease activity (ODA) was calculated by % change of histology and fibrosis scores and colonic mRNA expression of fibrosis- and inflammation-related genes. […]"}},
  "note": "“Also recorded” adds a separate entry of the source. Where no end group is shown, it is not given here.",
  "data": [
    {"substance": "Elafin: small (6 kDa) human elastase-specific protease inhibitor and antimicrobial peptide; active form SEQ ID NO: 2 (AQEPVKGPVSTKPGSCPIILIRCAMLNPPNRCLKDTDCPGIKKCCEGSCGMACFVPQ; listed as Homo sapiens)", "values": [
      {"measurement": "ProCOL1A1 protein expression", "setting": "[1]; CDSE-treated, Elafin 1 μg/ml", "result": "inhibited"},
      {"measurement": "TGF-β1 induced COL1A2 and ProCOL1A1 protein expression", "setting": "[2]; CCD-18Co, ELISA of cell lysates", "result": "reversed"},
      {"measurement": "TGF-β1-induced COL1A2 (collagen) mRNA expression", "setting": "[2]; TGF-β1 10 ng/ml, elafin (0.1-10 micrograms/ml) added two hours later, 24 hours", "result": "significantly reduced; also recorded: reversed"},
      {"measurement": "ZEB1 mRNA and protein expression", "setting": "[2]; TGF-β1-/CD serum-exosome-treated human colonic fibroblasts", "result": "decreased; also recorded: diminished"},
      {"measurement": "miR205-5p expression", "setting": "[2]; TGF-β1-treated CCD-18Co fibroblasts", "result": "increased"},
      {"measurement": "miR205-5p expression", "setting": "[2]; TGF-β1-treated CCD-18Co fibroblasts, listed as elafin", "result": "significantly increased"},
      {"measurement": "overall disease activity", "setting": "TNBS-treated mice; TNBS models", "result": "7-11%"}
    ]},
    {"substance": "SLIGKV-NH2 [PAR2 agonist, reference compound]", "values": [
      {"measurement": "effect on elafin-mediated inhibition of collagen expression", "setting": "[1]; CDSE-conditioned primary human colonic fibroblasts", "result": "reversed"},
      {"measurement": "effect on elafin-mediated miR205-5p induction and ZEB1 inhibition", "setting": "[2]; TGF-β1-treated CCD-18Co fibroblasts, agonist 10 μM", "result": "reversed"},
      {"measurement": "effect on elafin-mediated inhibition of collagen expression", "setting": "[2]; TGF-β1-treated CCD-18Co fibroblasts, elafin 1 μg/ml", "result": "reversed"},
      {"measurement": "colonic injury and fibrosis", "setting": "TNBS-treated mice; TNBS-treated mice", "result": "did not affect"},
      {"measurement": "colonic miR205-5p expression", "setting": "TNBS-treated mice; TNBS-treated mice", "result": "diminished"},
      {"measurement": "effect on elafin-mediated inhibition of colonic injury, fibrosis and fibrogenic gene expression", "setting": "TNBS-treated mice; TNBS-treated mice with intracolonic elafin overexpression", "result": "reversed"}
    ]}
  ]
}
